15 compounds from ChEMBL document CHEMBL2176980, “Influence of chlorine or fluorine substitution on the estrogenic properties of 1-alkyl-2,3,5-tris(4-hydroxyphenyl)-1H-pyrroles” (J Med Chem, 2012) can be followed below.

Series [1] concerns the target T1, Estrogen receptor (Homo sapiens, UniProt P03372).
T1 sequence (P03372 whole entry): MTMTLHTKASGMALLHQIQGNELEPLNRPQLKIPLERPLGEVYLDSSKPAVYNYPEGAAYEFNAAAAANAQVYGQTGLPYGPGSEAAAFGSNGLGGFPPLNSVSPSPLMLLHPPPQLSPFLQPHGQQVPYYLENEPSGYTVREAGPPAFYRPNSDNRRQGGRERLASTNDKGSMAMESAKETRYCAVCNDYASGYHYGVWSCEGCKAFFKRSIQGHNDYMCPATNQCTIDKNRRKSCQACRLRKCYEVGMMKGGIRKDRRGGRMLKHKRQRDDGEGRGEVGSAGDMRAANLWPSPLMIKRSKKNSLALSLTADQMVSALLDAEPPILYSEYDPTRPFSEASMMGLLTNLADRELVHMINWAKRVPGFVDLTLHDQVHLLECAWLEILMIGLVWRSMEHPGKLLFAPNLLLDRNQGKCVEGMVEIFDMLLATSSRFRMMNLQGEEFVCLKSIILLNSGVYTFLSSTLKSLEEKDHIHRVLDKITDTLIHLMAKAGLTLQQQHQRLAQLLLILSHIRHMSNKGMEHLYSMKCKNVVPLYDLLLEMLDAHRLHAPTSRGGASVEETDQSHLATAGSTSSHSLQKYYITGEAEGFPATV
The series can be described thus: Activation of human ERalpha expressed in human U2-OS cells by luciferase reporter gene assay relative to untreated control. The series is classed as cell-based, U2OS.

In series [2] the test system is MCF7. Put plainly: Down regulation of ERalpha human MCF7 cells at 10 uM by Western blotting. The series is classed as functional, cell-based. Background: A western blot detects proteins with antibodies after separation by electrophoresis.
Series [3] has as its target T2, Estrogen receptor (Homo sapiens) (UniProt P03372).
T2 sequence (whole entry): T1 sequence (P03372 whole entry)
Put plainly: Antagonist activity at ERalpha in human MCF7/2a cells assessed as reduction in 1 nM estradiol-induced receptor activation by luciferase reporter gene assay relative to untreated control. Format: functional, cell-based. Background: Reporter assays use an easily measured gene product as a stand-in for the process of interest.

In series [4] the test system is MCF7. The series can be described thus: Cytotoxicity in hormone-dependent human MCF7 cells assessed as growth inhibition incubated for 4 day s by crystal violet assay. The series is classed as functional, cell-based. The note with it: MCF7, 96 h.
The subject of series [5] is MCF7. The series can be described thus: Stimulation of cell growth in human MCF7 cells incubated for 20 to 100 hrs by crystal violet assay. Format: cell-based.
Series [6] concerns the target T1, Estrogen receptor. The series can be described thus: Activation of ERalpha in human MCF7/2a cells by luciferase reporter gene assay relative to untreated control. The series is classed as cell-based.
Series [7] is described as follows: Chemical stability in pH 7.3 PBS buffer at 10 uM at 37 degC. Format: physicochemical.
The nature of series [8]: Toxicity in hormone-independent human MDA-MB-231 cells assessed as growth inhibition incubated for 4 day s by crystal violet assay. Format: cell-based.
Series [9] concerns the target T2, Estrogen receptor (Homo sapiens). Put plainly: Activation of ERalpha in human MCF7/2a cells in presence of 0.1 uM 4-OHT by luciferase reporter gene assay relative to untreated control. The series is classed as cell-based.
Series [10] has the same target. Put plainly: Activation of ERalpha in human MCF7/2a cells pre-exposed to compound 1 to 3 hrs before 0.1 uM 4-OHT addition by luciferase reporter gene assay relative to untreated control. The series is classed as cell-based.

Activity calls are given as the source filed them. No cut-off for these calls is given here.

As to `Cn1c(-c2ccc(O)cc2)cc(-c2ccc(O)cc2)c1-c1ccc(O)cc1F`, the EC50 on Estrogen receptor [1] came to 60 nM. Besides, the outcome (in the series with MCF7 [2]; in [3]) was inactive. The IC50 in the series on MCF7 [4] worked out at 24700 nM.
As for `Cn1c(-c2ccc(O)cc2F)cc(-c2ccc(O)cc2)c1-c1ccc(O)cc1F`, the EC50 on Estrogen receptor [1] is 15 nM; at Estrogen receptor [6], 290 nM. The Activity entry with MCF7 [5] was “Non-toxic”. Moreover, the result with MCF7 [2] was Active. Moreover, in series [3], the result was inactive. Moreover, the IC50 in the series on MCF7 [4] was 8500 nM.
On to `CCCn1c(-c2ccc(O)cc2)cc(-c2ccc(O)cc2)c1-c1ccc(O)cc1Cl`, for which the EC50 on Estrogen receptor [1] came to 0.31 nM; on Estrogen receptor [6], 63 nM. Also, the outcome in the series with MCF7 [2] was Active. In addition, the result in series [3] was inactive.
As for `CCCn1c(-c2ccc(O)cc2F)cc(-c2ccc(O)cc2F)c1-c1ccc(O)cc1F`, the EC50 was 0.2 nM at Estrogen receptor [1] and 23 nM on Estrogen receptor [6]. The same compound gave a half-life at 10 µM in series [7] of 44 days. In the series with MCF7 [5], the Activity result is given as “Non-toxic”. For the same compound, the result with MCF7 [2] was Active. In addition, the result in series [3] was inactive. In series [8], the IC50 at 4 days stood at 21900 nM. For the same compound, in the series on MCF7 [4], the IC50 turned out to be 5600 nM.
As to `CCCn1c(-c2ccc(O)cc2)cc(-c2ccc(O)cc2)c1-c1ccc(O)cc1`, the EC50 on Estrogen receptor [1] worked out at 0.4 nM; on Estrogen receptor [6] it was 50 nM. Besides, in series [9], the outcome was inactive. The half-life at 10 µM in series [7] is 10.7 days. Further, the outcome in series [10] was Active.
Consider `CCCn1c(-c2ccc(O)cc2)cc(-c2ccc(O)cc2)c1-c1ccc(O)cc1F`, for which the EC50 came to 0.12 nM on Estrogen receptor [1] and 70 nM at Estrogen receptor [6]. Further, the half-life at 10 µM in series [7] is 31 days. Moreover, in the series on MCF7 [2], the outcome was Active. Moreover, the outcome in series [3] was inactive.
The compound `CCCn1c(-c2ccc(O)cc2Cl)cc(-c2ccc(O)cc2)c1-c1ccc(O)cc1` showed an EC50 on Estrogen receptor [1] of 47 nM. Besides, in series [7], the half-life at 10 µM was 61.4 days. For the same compound, in the series on MCF7 [2], the result was Active. Further, the outcome in series [3] was inactive.
`CCCn1c(-c2ccc(O)cc2F)cc(-c2ccc(O)cc2)c1-c1ccc(O)cc1F`: the EC50 worked out at 0.27 nM on Estrogen receptor [1] and 30 nM on Estrogen receptor [6]. In addition, the result in series [9] and in [3] was inactive. Further, the result (in series [10]; in the series with MCF7 [2]) was Active. Further, the IC50 at 4 days in series [8] was found to be 20900 nM.
On to `Cn1c(-c2ccc(O)cc2)cc(-c2ccc(O)cc2)c1-c1ccc(O)cc1Cl`, for which the EC50 on Estrogen receptor [1] came out at 16 nM; on Estrogen receptor [6] it was 600 nM. Besides, in the series on MCF7 [2], the outcome was Active. Besides, the outcome in [3] was inactive. For the same compound, in the series on MCF7 [4], the IC50 came to 19100 nM.
At Estrogen receptor [1], `Cn1c(-c2ccc(O)cc2F)cc(-c2ccc(O)cc2)c1-c1ccc(O)cc1` displayed an EC50 of 24 nM. The result (in the series with MCF7 [2]; in series [3]) was inactive. In the series with MCF7 [4], the IC50 was found to be 25500 nM.
Turning to `CCCn1c(-c2ccc(O)cc2F)cc(-c2ccc(O)cc2)c1-c1ccc(O)cc1`, the EC50 is 0.67 nM at Estrogen receptor [1] and 240 nM on Estrogen receptor [6]. The result in the series on MCF7 [2] was Active. The outcome in series [3] was inactive.
`CCCc1c(-c2ccc(O)cc2)nn(-c2ccc(O)cc2)c1-c1ccc(O)cc1` [PROPYLPYRAZOLETRIOL]: the EC50 on Estrogen receptor [1] is 0.1 nM; at Estrogen receptor [6], 3 nM. In addition, the outcome with MCF7 [2] was Active. For the same compound, the IC50 in the series on MCF7 [4] was determined as 27200 nM.
`CCCc1c(-c2ccc(O)cc2)cn(-c2ccc(O)cc2)c1-c1ccc(O)cc1`: the EC50 turned out to be 1.6 nM at Estrogen receptor [1] and 70 nM at Estrogen receptor [6]. For the same compound, the result in [9] was inactive. Besides, in [7], the half-life at 10 µM is 7.04 days. The result in series [10] was Active.
Regarding `CCCn1c(-c2ccc(O)cc2)cc(-c2ccc(O)cc2F)c1-c1ccc(O)cc1`, the EC50 on Estrogen receptor [1] was found to be 0.84 nM; on Estrogen receptor [6], 26 nM. Besides, the outcome in the series on MCF7 [2] was Active. Besides, the result in series [3] was inactive.
Compound `Cn1c(-c2ccc(O)cc2Cl)cc(-c2ccc(O)cc2)c1-c1ccc(O)cc1` displayed an EC50 on Estrogen receptor [1] of 100 nM. Moreover, the outcome (in the series with MCF7 [2]; in [3]) was inactive. In the series with MCF7 [4], the IC50 amounted to 23800 nM.

For orientation: EC50 means the concentration giving half of the maximal effect. Higher therefore signals a need for much substance. Broadly, the IC50 is the midpoint of a concentration-inhibition curve. What is called half-life is how long it takes for the measured level to halve. High values mean slow decline, low ones rapid decline.
